Results: patent US12269803B2, “Krüppel-like factor 15 (KLF15) small molecule agonists in kidney disease” (United States Government as represented by the Department …, priority 2020, dated 2025)
Converted amounts (≈) assume the structure as drawn. “Also recorded” adds a separate entry of the source.

How the values were obtained:
KLF15 reporter = KLF15 reporter activity in LPS-treated human podocytes (podocyte stress model); type: cell-based
Procedure: (§1) FIG. 10A-D show representative data illustrating the dose-response curve and EC50 (FIG. 10A), KLF15 reporter activity (FIG. 10B), and Renilla activity (cell viability) (FIG. 10C) in LPS-treated HP, and the therapeutic efficacy in abrogating albuminuria (biomarker of kidney disease) in LPS-treated mice (FIG. 10D).
(§2) After the synthesis of these novel analogues, a primary screening assay was conducted.

human podocytes [1] = test: Toxicity to human podocytes in primary screening assay (Renilla, cell viability); type: cell-based; conditions: 1 μM, 24 hr
Procedure: as §2

KLF15 promoter [2] = test: KLF15 reporter human podocyte assay (HTS, dose-response, primary screening); type: cell-based; conditions: for KLF15 reporter activity, primary screening assay: 1 μM, 24 hr, vs DMSO; for maximal KLF15 reporter activity: dose escalation, at similar concentrations to DEX; for EC50: dose-response curve, human podocytes, luciferase/renilla
Procedure: A stable reporter assay directed at KLF15 promoter region (4.3 kb region) was generated in human podocytes, a fragment of human KLF15 promoter upstream of the start codon, by amplifying and subcloning it into the firefly luciferase reporter plasmid (co-transfection with renilla to serve as internal controls). KLF15 promoter activity is measured as a ratio of luciferase to renilla activity. Using this reporter cell line, a cell-based HTS assay was developed using recently reported cell-seeding methodology specific to cultured podocytes (16).

human podocytes [3] = test: Podocyte survival (Renilla, cell viability) after LPS treatment; type: cell-based; conditions: LPS-treated human podocytes
Procedure: as §1, §2

KLF15 promoter [4] = test: KLF15 promoter activity in human podocytes, KLF15 agonist combined with dexamethasone; type: cell-based; conditions: for KLF15 promoter activity, single agent: alone (DEX 1 μM), vs DMSO-treated human podocytes; for KLF15 promoter activity, combination with DEX: vs DEX 1 μM
LPS-treated mice = test: LPS-induced albuminuria murine model; type: in vivo; conditions: C57BL/6 mice, LPS 10 μg/g, subcutaneous minipump 3.5 μg/day for 48 hours, vs DMSO
Procedure: Referring to FIG. 10D, C57BL/6 mice were treated with lipopolysaccharide (LPS) at dose of 10 μg/g in two divided doses 24 hours apart intraperitoneally to induce podocyte injury and albuminuria.

human liver microsomes = test: Stability in human liver microsomes
Procedure: Mixed-gender human liver microsomes (Lot #1010420) were purchased from XenoTech. The reaction mixture, minus NADPH, was prepared as described below. […] The control compound, testosterone, was run simultaneously with the lead compounds in a separate reaction. The reaction mixture (without cofactor) was equilibrated in a shaking water bath at 37° C. for 3 minutes. The reaction was initiated by the addition of the cofactor, and the mixture was incubated in a shaking water bath at 37° C. Aliquots (100 μL) were withdrawn at 0, 10, 20, 30, and 60 minutes. Each lead compound and testosterone samples were immediately combined with 400 μL of ice-cold 50/50 acetonitrile (ACN)/H2O containing 0.1% formic acid and internal standard to terminate the reaction. The samples were then mixed and centrifuged to precipitate proteins. All samples were assayed by LC-MS/MS using electrospray ionization. The peak area response ratio (PARR) to internal standard was compared to the PARR at time 0 to determine the percent remaining at each time point. Half-lives and clearance were calculated using GraphPad software, fitting to a single-phase exponential decay equation.

[5] = Stability in pH 7.4 phosphate buffer; type: physicochemical; conditions: 37° C., 1 μM
Procedure: Studies were carried out in pH 7.4 phosphate buffer. The buffer was prepared by combining 50 mL of 0.2 M KH2PO4 with 150 mL of H2O, and then adjusting to pH 7.4 with 10 N NaOH. The buffer was adjusted to pH 7.4 prior to initiating the experiments. […] Aliquots of the DMSO solutions were dosed into 0.5 mL of matrix, which had been pre-warmed to 37° C., at a final lead compound concentration of 1 μM. Individual tubes were dosed for each timepoint. The vials were kept in a benchtop Thermomixer for the duration of the experiment. At each time point (0, 30, 60, and 120 minutes), an equal volume of acetonitrile was added to the appropriate tubes. Samples were stored at 4° C. until the end of the experiment. After the final time point was sampled, the plate was mixed and then centrifuged at 3,000 rpm for 10 minutes. Aliquots of the supernatant were removed, diluted 1:1 into distilled water, and analyzed by LC-MS/MS.

[6] = system: Caco-2 cells (clone C2BBe1); test: Caco-2 permeability; type: in vitro ADME; conditions: for Papp AVG / Papp R1 / Recovery: 5 μM, 120 minutes; for Efflux Ratio / Significant Efflux: Caco-2; for Absorption Potential Classification: Caco-2, from Papp (A-to-B)
Procedure: Caco-2 cells (clone C2BBe1) were obtained from American Type Culture Collection (Manassas, VA). Cell monolayers were grown to confluence on collagen-coated, microporous membranes in 12-well assay plates. Details of the plates and their certification are shown below. The permeability assay buffer was Hanks' balanced salt solution containing 10 mM HEPES and 15 mM glucose at a pH of 7.4. The buffer in the receiver chamber also contained 1% bovine serum albumin. The dosing solution concentration was 5 μM of lead compound in the assay buffer. Cell monolayers were dosed on the apical side (A-to-B) or basolateral side (B-to-A) and incubated at 37° C. with 5% CO2 in a humidified incubator. Samples were taken from the donor and receiver chambers at 120 minutes. Each determination was performed in duplicate. The flux of lucifer yellow was also measured post-experimentally for each monolayer to ensure no damage was inflicted to the cell monolayers during the flux period. […] The apparent permeability (Papp) and percent recovery were calculated and provided.

[7] = Equilibrium solubility in aqueous buffers; type: physicochemical
Procedure: The pH 2.0 buffer was prepared by combining 50 mL of 0.2 M KCl with 150 mL of H2O, and then adjusting to pH 2.0 with 10 N HCl. […] The pH 7.4 buffer was prepared by combining 50 mL of 0.2 M KH2PO4 with 150 mL of H2O, and then adjusting to pH 7.4 with 10 N NaOH. At least 0.3 mg of powder for each lead compound was combined with 1 mL of each buffer to make a ≥0.3 mg/mL mixture. These samples were shaken on a Thermomixer® overnight at room temperature. The samples were then centrifuged for 10 minutes at 14,000 rpm. The supernatant was sampled and diluted in duplicate 10-, 100-, 1,000-, and 10,000-fold into a mixture of 1:1 buffer:acetonitrile (ACN) prior to analysis. […] Standard concentrations ranged from 1.0 μM to 0.3 nM.

[8] = pH 2, room temperature overnight
[9] = pH 4, room temperature overnight
[10] = pH 7.4, room temperature overnight
[11] = human liver microsomes, 1 μM, 37° C.
[12] = human liver microsomes, Clint = k/P

Row | SMILES | KLF15 reporter activity after LPS treatment (KLF15 reporter) | toxicity to human podocytes (human podocytes [1]) | KLF15 reporter activity, primary screening assay (KLF15 promoter [2]) | maximal KLF15 reporter activity (KLF15 promoter [2]) | podocyte survival after LPS treatment (human podocytes [3]) | KLF15 promoter activity, single agent (KLF15 promoter [4]) | KLF15 promoter activity, combination with DEX (KLF15 promoter [4]; compound 0.5 μM + DEX 0.5 μM) | albuminuria (LPS-treated mice) | Percent Remaining 0 min [5] | Percent Remaining 30 min [5] | Percent Remaining 60 min [5] | Percent Remaining 120 min [5] | Papp AVG ([6]; A-to-B) | Papp R1 ([6]; A-to-B) | Recovery ([6]; A-to-B) | Papp AVG ([6]; B-to-A) | Papp R1 ([6]; B-to-A) | Recovery ([6]; B-to-A) | Efflux Ratio [6] | Significant Efflux [6] | other results
1 | CSc1ccc(NC(=O)Nc2ccc(B3OC(C)(C)C(C)(C)O3)cc2)cc1 [BT412] | improved KLF15 reporter activity | no observed toxicity | significantly induced KLF15 reporter activity | higher maximal KLF15 reporter activity | improved; also recorded: improve podocyte survival |  |  |  |  |  |  |  |  |  |  |  |  |  |  |  | 
2 | CSc1ccc(NC(=O)c2ccc(O)cc2)cc1 [BT501] |  | no observed toxicity | significantly induced KLF15 reporter activity | higher maximal KLF15 reporter activity | improve podocyte survival | significantly induced KLF15 promoter activity | synergistic effect | significantly reduced albuminuria | 100 | 88.4 | 92.1 | 87.7 | 35.5 10^−6 cm/s | 32.5 10^−6 cm/s | 66.7% | 35 10^−6 cm/s | 32.5 10^−6 cm/s | 81.7% | 0.987 | No (Significant Efflux: ER ≥ 2.0 and Papp (B-to-A) ≥ 1.0 × 10^−6 cm/s) | CLint (intrinsic clearance) (human liver microsomes; human, microsomes): 0.0387 mL/min/mg protein; Half-Life (human liver microsomes; human, microsomes): 35.8 min; Absorption Potential Classification [6]: High (Papp (A-to-B) ≥ 1.0 × 10^−6 cm/s: High); Solubility AVG [7, 8]: 97.7 µM (≈ 25.3 µg/mL); Solubility R1 [7, 8]: 99.7 µM (≈ 25.9 µg/mL); Solubility AVG [7, 9]: 153 µM (≈ 39.7 µg/mL); Solubility R1 [7, 9]: 157 µM (≈ 40.7 µg/mL); Solubility AVG [7, 10]: 269 µM (≈ 69.8 µg/mL); Solubility R1 [7, 10]: 279 µM (≈ 72.4 µg/mL)
3 | CSc1ccc(NC(=O)Nc2ccc(C#N)cn2)cc1 [BT502] | improved KLF15 reporter activity | no observed toxicity | significantly induced KLF15 reporter activity | higher maximal KLF15 reporter activity | improved | significantly induced KLF15 promoter activity | synergistic effect | significantly reduced albuminuria | 100 | 99.7 | 87 | 88.7 | 15.2 10^−6 cm/s | 14.6 10^−6 cm/s | 63.1% | 7.34 10^−6 cm/s | 6.35 10^−6 cm/s | 67.1% | 0.481 | No (Significant Efflux: ER ≥ 2.0 and Papp (B-to-A) ≥ 1.0 × 10^−6 cm/s) | KLF15 promoter activity, combination with DEX (KLF15 promoter [4]; compound 100 nM + DEX 0.5 μM): synergistic effect; Half-Life (human liver microsomes; [11]): 17 min; Percent Remaining 0 min (human liver microsomes; [11]): 100; Percent Remaining 10 min (human liver microsomes; [11]): 63.9; Percent Remaining 20 min (human liver microsomes; [11]): 45.3; Percent Remaining 30 min (human liver microsomes; [11]): 29.6; Percent Remaining 60 min (human liver microsomes; [11]): 8.53; CLint (intrinsic clearance) (human liver microsomes; [12]): 0.0813 mL/min/mg protein; Absorption Potential Classification [6]: High (Papp (A-to-B) ≥ 1.0 × 10^−6 cm/s: High); Solubility AVG [7, 8]: 22.2 µM (≈ 6.31 µg/mL); Solubility R1 [7, 8]: 21.8 µM (≈ 6.2 µg/mL); Solubility AVG [7, 9]: 10.4 µM (≈ 2.96 µg/mL); Solubility R1 [7, 9]: 10.4 µM (≈ 2.96 µg/mL); Solubility AVG [7, 10]: 28.1 µM (≈ 7.99 µg/mL); Solubility R1 [7, 10]: 28.4 µM (≈ 8.08 µg/mL)
4 | CSc1ccc(NC(=O)Nc2ccc(C)nc2)cc1 [BT503] | improved KLF15 reporter activity | no observed toxicity | significantly induced KLF15 reporter activity | higher maximal KLF15 reporter activity | improved; also recorded: improve podocyte survival | significantly induced KLF15 promoter activity | synergistic effect | significantly reduced albuminuria | 100 | 90.6 | 87.6 | 80.5 | 10.7 10^−6 cm/s | 13.1 10^−6 cm/s | 59.7% | 9.7 10^−6 cm/s | 9.06 10^−6 cm/s | 69% | 0.909 | No (Significant Efflux: ER ≥ 2.0 and Papp (B-to-A) ≥ 1.0 × 10^−6 cm/s) | KLF15 promoter activity, combination with DEX (KLF15 promoter [4]; compound 10 nM + DEX 0.5 μM): synergistic effect; KLF15 promoter activity, combination with DEX (KLF15 promoter [4]; compound 100 nM + DEX 0.5 μM): synergistic effect; Half-Life (human liver microsomes; [11]): 13 min; Percent Remaining 0 min (human liver microsomes; [11]): 100; Percent Remaining 10 min (human liver microsomes; [11]): 60.1; Percent Remaining 20 min (human liver microsomes; [11]): 35.3; Percent Remaining 30 min (human liver microsomes; [11]): 18.5; Percent Remaining 60 min (human liver microsomes; [11]): 3.3; CLint (intrinsic clearance) (human liver microsomes; [12]): 0.107 mL/min/mg protein; Absorption Potential Classification [6]: High (Papp (A-to-B) ≥ 1.0 × 10^−6 cm/s: High); EC50 (KLF15 promoter [2]): ~7.1 nM; Solubility AVG [7, 8]: 343 µM (≈ 93.8 µg/mL); Solubility R1 [7, 8]: 332 µM (≈ 90.8 µg/mL); Solubility AVG [7, 9]: 17.3 µM (≈ 4.73 µg/mL); Solubility R1 [7, 9]: 17.4 µM (≈ 4.76 µg/mL); Solubility AVG [7, 10]: 34.5 µM (≈ 9.43 µg/mL); Solubility R1 [7, 10]: 31.6 µM (≈ 8.64 µg/mL)
5 | CC1(C)OB(c2ccc(C(N)=NO)cc2)OC1(C)C [BT506] |  | Toxicity |  |  |  |  |  |  |  |  |  |  |  |  |  |  |  |  |  |  | 
6 | CSc1ccc(-c2nc(-c3ccc(O)cc3)no2)cc1 [BT514] | improved KLF15 reporter activity | no observed toxicity | significantly induced KLF15 reporter activity |  | improved; also recorded: improve podocyte survival |  |  |  |  |  |  |  |  |  |  |  |  |  |  |  | 
7 | C[C@@H]1C[C@H]2[C@@H]3CCC4=CC(=O)C=C[C@]4(C)[C@@]3(F)[C@@H](O)C[C@]2(C)[C@@]1(O)C(=O)CO [DEX, dexamethasone, reference compound] |  |  |  |  |  |  |  |  |  |  |  |  |  |  |  |  |  |  |  |  | EC50 (KLF15 promoter [2]): 5410 nM
